Experimental data reported in patent publication US20210238139A1, “MODULATORS OF TRYPTOPHAN CATABOLISM” (E-Therapeutics PLC, priority 2018, published 2021).

system: SK-OV-3 cells; assay: Effect of compounds on tryptophan catabolism in SK-OV-3 cell line (inhibition of kynurenine production, LC-MS/MS); type: cell-based; details: Homo sapiens, SK-OV-3, 24 h, SK-OV-3 cell line, 24 h incubation, kynurenine in supernatant by LC-MS/MS; read-out: IC50 Ranges (ic50 values for inhibition of Kynurenine production)
Procedure, shortened: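 Kynurenine in supernatants quantified by LC-MS/MS after 24 h compound exposure (37 °C; top 30 μM, eight 3-fold steps, duplicate) in DMEM F-12 containing 6 mg/mL L-tryptophan. Cells pre-plated overnight in McCoy's 5A with 10% FBS. Viability checked in parallel by ATP luminescence.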

IC50 | Structure (SMILES)
500 to 1000 nM | Cc1ccc(CN(C(=O)Nc2ccc(C#N)cc2)[C@H]2C[C@H](F)C2)o1 [Compound 272, 3-(4-cyanophenyl)-1-(3-fluorocyclobutyl)-1-[(5-methyl-2-furyl)methyl]urea]
100 to 500 nM | Cc1ccc(CN(C(=O)Nc2ccc(Cl)cc2)[C@H]2C[C@H](F)C2)o1 [Compound 273, 3-(4-chlorophenyl)-1-(3-fluorocyclobutyl)-1-[(5-methyl-2-furyl)methyl]urea]
1000 to 5000 nM | N#Cc1ccc(NC(=O)N(Cc2ccn3ccnc3n2)C2CCC2)cc1 [Compound 274, 3-(4-cyanophenyl)-1-cyclobutyl-1-(imidazo[1,2-a]pyrimidin-7-ylmethyl)urea]
1000 to 5000 nM | O=C(Nc1ccc(Cl)cc1)N(Cc1ccn2ccnc2n1)C1CCC1 [Compound 275, 3-(4-chlorophenyl)-1-cyclobutyl-1-(imidazo[1,2-a]pyrimidin-7-ylmethyl)urea]
< 100 nM | Cc1ccc(CN(C(=O)Nc2ccc(C#N)cc2)c2conc2C)o1 [Compound 278, 3-(4-cyanophenyl)-1-[(5-methyl-2-furyl)methyl]-1-(3-methylisoxazol-4-yl)urea]
1000 to 5000 nM | Cn1nccc1N(Cc1ccc2ncsc2c1)C(=O)Nc1ccc(C#CCO)cc1 [Compound 280, 1-(1,3-benzothiazol-6-ylmethyl)-3-[4-(3-hydroxyprop-1-ynyl)phenyl]-1-(2-methylpyrazol-3-yl)urea]
1000 to 5000 nM | Cc1oncc1N(Cc1ccc2scnc2c1)C(=O)Nc1ccc(C#N)cc1 [Compound 281, 1-(1,3-benzothiazol-5-ylmethyl)-3-(4-cyanophenyl)-1-(5-methylisoxazol-4-yl)urea]
500 to 1000 nM | Cc1ccc(CN(C(=O)Nc2ccc(Cl)cc2)c2ccccn2)o1 [Compound 282, 3-(4-chlorophenyl)-1-[(5-methyl-2-furyl)methyl]-1-(2-pyridyl)urea]
1000 to 5000 nM | Cc1ccc(CN(C(=O)Nc2ccc(C#N)cc2)c2ccccn2)o1 [Compound 283, 3-(4-cyanophenyl)-1-[(5-methyl-2-furyl)methyl]-1-(2-pyridyl)urea]
100 to 500 nM | Cc1ccc(CN(C(=O)Nc2ccc(Cl)cc2)C23CC(C2)C3)o1 [Compound 284, 1-(1-bicyclo[1.1.1]pentanyl)-3-(4-chlorophenyl)-1-[(5-methyl-2-furyl)methyl]urea]
100 to 500 nM | Cc1ccc(CN(C(=O)Nc2ccc(C#N)cc2)C23CC(C2)C3)o1 [Compound 285, 1-(1-bicyclo[1.1.1]pentanyl)-3-(4-cyanophenyl)-1-[(5-methyl-2-furyl)methyl]urea]
1000 to 5000 nM | Cc1ccc(CN(C(=O)Nc2ccc(Cl)cc2)C2CC3(COC3)C2)o1 [Compound 286, 3-(4-chlorophenyl)-1-[(5-methyl-2-furyl)methyl]-1-(2-oxaspiro[3.3]heptan-6-yl)urea]
> 5000 nM | Cc1ccc(CN(C(=O)Nc2ccc(C#N)cc2)C2CC3(COC3)C2)o1 [Compound 287, 3-(4-cyanophenyl)-1-[(5-methyl-2-furyl)methyl]-1-(2-oxaspiro[3.3]heptan-6-yl)urea]
1000 to 5000 nM | Cc1oncc1N(Cc1ccnc(C(F)(F)F)c1)C(=O)Nc1ccc(C#N)cc1 [Compound 288, 3-(4-cyanophenyl)-1-(5-methylisoxazol-4-yl)-1-[[2-(trifluoromethyl)-4-pyridyl]methyl]urea]
100 to 500 nM | COc1ccc(NC(=O)N(Cc2ccc(C)o2)C2CCCC2)cc1 [Compound 290, 1-cyclopentyl-3-(4-methoxyphenyl)-1-[(5-methyl-2-furyl)methyl]urea]
500 to 1000 nM | Cc1ncc(CN(C(=O)Nc2ccc(C#N)cc2)C2CCCC2)o1 [Compound 291, 3-(4-cyanophenyl)-1-cyclopentyl-1-[(2-methyloxazol-5-yl)methyl]urea]
100 to 500 nM | Cc1oncc1N(Cc1cccc(C(F)(F)F)c1)C(=O)Nc1ccc(C#N)cc1 [Compound 293, 3-(4-cyanophenyl)-1-(5-methylisoxazol-4-yl)-1-[[3-(trifluoromethyl)phenyl]methyl]urea]
< 100 nM | Cc1ncc(CN(C(=O)Nc2ccc(C#CCO)cc2)C2CCCC2)o1 [Compound 294, 1-cyclopentyl-3-[4-(3-hydroxyprop-1-ynyl)phenyl]-1-[(2-methyloxazol-5-yl)methyl]urea]
< 100 nM | CCc1ccc(CN(C(=O)Nc2ccc(C#N)cc2)C2CCCC2)o1 [Compound 295, 3-(4-cyanophenyl)-1-cyclopentyl-1-[(5-ethyl-2-furyl)methyl]urea]
100 to 500 nM | O=C(Nc1ccc(C#CCO)cc1)N(Cc1ccnc(C(F)(F)F)c1)C1CCC1 [Compound 296, 1-cyclobutyl-3-[4-(3-hydroxyprop-1-ynyl)phenyl]-1-[[2-(trifluoromethyl)-4-pyridyl]methyl]urea]
< 100 nM | Cc1ccc(CN(C(=O)Nc2ccc(C#CCO)cc2)C2CCC2)o1 [Compound 297, 1-cyclobutyl-3-[4-(3-hydroxyprop-1-ynyl)phenyl]-1-[(5-methyl-2-furyl)methyl]urea]
< 100 nM | Cc1ccc(CN(C(=O)Nc2ccc(Cl)cc2)c2nonc2C)o1 [Compound 298, 3-(4-chlorophenyl)-1-[(5-methyl-2-furyl)methyl]-1-(4-methyl-1,2,5-oxadiazol-3-yl)urea]

IC50 | Structure (SMILES)
100 to 500 nM | CCc1ccc(CN(C(=O)Nc2ccc(C#N)cc2)c2cnoc2C)o1 [Compound 299, 3-(4-cyanophenyl)-1-[(5-ethyl-2-furyl)methyl]-1-(5-methylisoxazol-4-yl)urea]
1000 to 5000 nM | Cc1ccc(CN(C(=O)Nc2ccc(Cl)cc2)c2nc3ccccc3s2)o1 [Compound 300, 1-(1,3-benzothiazol-2-yl)-3-(4-chlorophenyl)-1-[(5-methyl-2-furyl)methyl]urea]
< 100 nM | Cc1ccc(CN(C(=O)Nc2ccc(OC(F)F)cc2)c2cnoc2C)o1 [Compound 301, 3-[4-(difluoromethoxy)phenyl]-1-[(5-methyl-2-furyl)methyl]-1-(5-methylisoxazol-4-yl)urea]
1000 to 5000 nM | Cn1nccc1N(Cc1ccnc(C(F)(F)F)c1)C(=O)Nc1ccc(Cl)cc1 [Compound 302, 3-(4-chlorophenyl)-1-(2-methylpyrazol-3-yl)-1-[[2-(trifluoromethyl)-4-pyridyl]methyl]urea]
> 5000 nM | Cc1ccc(CN(C(=O)Nc2ccc(O)cc2)C2CCCC2)o1 [Compound 303, 1-cyclopentyl-3-(4-hydroxyphenyl)-1-[(5-methyl-furyl)methyl]urea]
100 to 500 nM | Cc1ccc(CN(C(=O)Nc2ccc(C#N)cc2)c2cnoc2)o1 [Compound 304, 3-(4-cyanophenyl)-1-isoxazol-4-yl-1-[(5-methyl-2-furyl)methyl]urea]
< 100 nM | Cc1ccc(CN(C(=O)Nc2ccc(Cl)cc2)c2cnoc2)o1 [Compound 305, 3-(4-chlorophenyl)-1-isoxazol-4-yl-1-[(5-methyl-2-furyl)methyl]urea]
1000 to 5000 nM | Cc1ccc(CN(C(=O)N(C)c2ccc(C#CCO)cc2)C2CCC2)o1 [Compound 306, 1-cyclobutyl-3-[4-(3-hydroxyprop-1-ynyl)phenyl]-3-methyl-1-[(5-methyl-2-furyl)methyl]urea]
> 5000 nM | Cc1ccc(CN(C(=O)Nc2ccc3c(c2)CNC3=O)C2CCCC2)o1 [Compound 307]
500 to 1000 nM | Cc1nocc1N(Cc1cccc(C(F)(F)F)c1)C(=O)Nc1ccc(-n2cc(CO)nn2)cc1 [Compound 308, 3-[4-[4-(hydroxymethyl)triazol-1-yl]phenyl]-1-(3-methylisoxazol-4-yl)-1-[[3-(trifluoromethyl)phenyl]methyl]urea]
100 to 500 nM | Cc1ccc(CN(C(=O)Nc2ccc(C#CCO)cc2)c2nccn2C)o1 [Compound 309, 3-[4-(3-hydroxyprop-ynyl)phenyl]-1-[(5-methyl-2-furyl)methyl]-1-(1-methylimidazol-2-yl)urea]
1000 to 5000 nM | N#Cc1ccc(NC(=O)N(Cc2nc3c(s2)COCC3)C2CCCC2)cc1 [Compound 310, 3-(4-cyanophenyl)-1-cyclopentyl-1-(6,7-dihydro-4H-pyrano[4,3-d]thiazol-2-ylmethyl)urea]
100 to 500 nM | O=C(Nc1ccc(Cl)cc1)N(Cc1nc2c(s1)COCC2)C1CCCC1 [Compound 311, 3-(4-chlorophenyl)-1-cyclopentyl-1-(6,7-dihydro-4H-pyrano[4,3-d]thiazol-2-ylmethyl)urea]
1000 to 5000 nM | Cc1ccc(CN(C(=O)Nc2ccc3c(c2)CN(C)C3=O)C2CCCC2)o1 [Compound 312, 1-cyclopentyl-1-[(5-methyl-2-furyl)methyl]-3-(2-methyl-1-oxo-isoindolin-5-yl)urea]
100 to 500 nM | Cc1nocc1N(Cc1cccc(C#N)n1)C(=O)Nc1ccc(Cl)cc1 [Compound 313, 3-(4-chlorophenyl)-1-[(6-cyano-2-pyridyl)methyl]-1-(3-methylisoxazol-4-yl)urea]
100 to 500 nM | Cc1ccc(CN(C(=O)Nc2ccc(C#N)cc2)c2ncccc2C)o1 [Compound 314, 3-(4-cyanophenyl) [(5-methyl-2-furyl)methyl]-1-(3-methyl-2-pyridyl)urea]
< 100 nM | Cc1nocc1N(Cc1cccc(C(F)(F)F)c1)C(=O)Nc1ccc(C#CCO)cc1 [Compound 315, 3-[4-(3-hydroxyprop-1-ynyl)phenyl]-1-(3-methylisoxazol-4-yl)-1-[[3-(trifluoromethyl)phenyl]methyl]urea]
> 5000 nM | Cc1ncc(CN(C(=O)Nc2ccc(C#N)cc2)c2conc2C)o1 [Compound 316, 3-(4-cyanophenyl)-(3-methylisoxazol-4-yl)-1-[(2-methyloxazol-5-yl)methyl]urea]
1000 to 5000 nM | Cc1ccc(CN(C(=O)Nc2ccc(C3COC3)cc2)C2CCCC2)o1 [Compound 317, 1-cyclopentyl-1-[(5-methyl-2-furyl)methyl]-3-[4-(oxetan-3-yl)phenyl]urea]
< 100 nM | Cc1ccc(CN(C(=O)Nc2ccc(Cl)cc2)c2ncccc2C)o1 [Compound 318, 3-(4-chlorophenyl)-1-[(5-methyl-2-furyl)methyl]-1-(3-methyl-2-pyridyl)urea]
< 100 nM | N#Cc1cccc(CN(C(=O)Nc2ccc(C#CCO)cc2)C2CCC2)n1 [Compound 319]
